Measured values published in PubChem BioAssay AID1745844 (Carcinogenic Potency Database (CPDB), 2022).
The source made the active and inactive calls. No rule for the calls is given here.

Tested on: rodent lifetime carcinogenesis bioassay, tumor incidence TD50
Assay: carcinogenic potency in animals, long-term in vivo studies, CPDB compilation (AID 1745844)
Details: mouse, study length 104 weeks

Compound `ClCCl` has a TD50 (strain B6C3F1, females, inhaled, site: any site (literature study), lesion: several types, types named in the paper, dosed 102 weeks) of 1020 mg/kg/day, a TD50 (strain B6C3F1, females, inhaled, site: liver + lung, lesion: hepatocellular adenoma + hepatocellular carcinoma + alveolar/bronchiolar adenoma + alveolar/bronchiolar carcinoma, dosed 102 weeks) of 817 mg/kg/day and a TD50 (strain B6C3F1, females, inhaled, site: liver, lesion: hepatocellular adenoma + hepatocellular carcinoma + neoplastic nodule, dosed 102 weeks) of 1430 mg/kg/day. For the same compound, the TD50 (strain B6C3F1, females, inhaled, site: liver, lesion: hepatocellular adenoma + hepatocellular carcinoma, dosed 102 weeks) was 1430 mg/kg/day, the TD50 (strain B6C3F1, females, inhaled, site: liver, lesion: hepatocellular adenoma, dosed 26 weeks) was 2570 mg/kg/day and the TD50 (strain B6C3F1, females, inhaled, site: liver, lesion: hepatocellular adenoma, dosed 52 weeks) was 6250 mg/kg/day. The TD50 (strain B6C3F1, females, inhaled, site: liver, lesion: hepatocellular adenoma, dosed 78 weeks) was 2780 mg/kg/day, the TD50 (strain B6C3F1, females, inhaled, site: liver, lesion: hepatocellular adenoma, dosed 102 weeks) was 3170 mg/kg/day and the TD50 (strain B6C3F1, females, inhaled, site: liver, lesion: hepatocellular adenoma, dosed 104 weeks) was 4860 mg/kg/day. It also gave a TD50 (strain B6C3F1, females, inhaled, site: liver, lesion: hepatocellular carcinoma, dosed 26 weeks) of 6790 mg/kg/day, a TD50 (strain B6C3F1, females, inhaled, site: liver, lesion: hepatocellular carcinoma, dosed 52 weeks) of 4960 mg/kg/day and a TD50 (strain B6C3F1, females, inhaled, site: liver, lesion: hepatocellular carcinoma, dosed 78 weeks) of 4020 mg/kg/day. It also gave a TD50 (strain B6C3F1, females, inhaled, site: liver, lesion: hepatocellular carcinoma, dosed 102 weeks) of 1850 mg/kg/day, a TD50 (strain B6C3F1, females, inhaled, site: liver, lesion: hepatocellular carcinoma, dosed 104 weeks) of 2750 mg/kg/day and a TD50 (strain B6C3F1, females, inhaled, site: liver, lesion: several types, types named in the paper, dosed 26 weeks) of 1840 mg/kg/day. The TD50 (strain B6C3F1, females, inhaled, site: liver, lesion: several types, types named in the paper, dosed 52 weeks) was 2850 mg/kg/day, the TD50 (strain B6C3F1, females, inhaled, site: liver, lesion: several types, types named in the paper, dosed 78 weeks) was 1730 mg/kg/day and the TD50 (strain B6C3F1, females, inhaled, site: liver, lesion: several types, types named in the paper, dosed 104 weeks) was 1740 mg/kg/day. For the same compound, the TD50 (strain B6C3F1, females, inhaled, site: lung, lesion: adenoma, dosed 26 weeks) was 3400 mg/kg/day, the TD50 (strain B6C3F1, females, inhaled, site: lung, lesion: adenoma, dosed 52 weeks) was 3810 mg/kg/day and the TD50 (strain B6C3F1, females, inhaled, site: lung, lesion: adenoma, dosed 78 weeks) was 3590 mg/kg/day. For the same compound, the TD50 (strain B6C3F1, females, inhaled, site: lung, lesion: alveolar/bronchiolar adenoma + alveolar/bronchiolar carcinoma, dosed 102 weeks) was 917 mg/kg/day, the TD50 (strain B6C3F1, females, inhaled, site: lung, lesion: alveolar/bronchiolar adenoma, dosed 102 weeks) was 1420 mg/kg/day and the TD50 (strain B6C3F1, females, inhaled, site: lung, lesion: alveolar/bronchiolar adenoma, dosed 104 weeks) was 5020 mg/kg/day. The TD50 (strain B6C3F1, females, inhaled, site: lung, lesion: alveolar/bronchiolar carcinoma, dosed 102 weeks) was 1690 mg/kg/day, the TD50 (strain B6C3F1, females, inhaled, site: lung, lesion: alveolar/bronchiolar carcinoma, dosed 104 weeks) was 2670 mg/kg/day and the TD50 (strain B6C3F1, females, inhaled, site: lung, lesion: carcinoma, dosed 26 weeks) was 1650 mg/kg/day. It also gave a TD50 (strain B6C3F1, females, inhaled, site: lung, lesion: carcinoma, dosed 52 weeks) of 952 mg/kg/day, a TD50 (strain B6C3F1, females, inhaled, site: lung, lesion: carcinoma, dosed 78 weeks) of 2830 mg/kg/day and a TD50 (strain B6C3F1, females, inhaled, site: lung, lesion: several types, types named in the paper, dosed 26 weeks) of 1280 mg/kg/day. For the same compound, the TD50 (strain B6C3F1, females, inhaled, site: lung, lesion: several types, types named in the paper, dosed 52 weeks) was 804 mg/kg/day, the TD50 (strain B6C3F1, females, inhaled, site: lung, lesion: several types, types named in the paper, dosed 78 weeks) was 1520 mg/kg/day and the TD50 (strain B6C3F1, females, inhaled, site: lung, lesion: several types, types named in the paper, dosed 104 weeks) was 1650 mg/kg/day. The TD50 (strain B6C3F1, females, inhaled, site: thyroid gland, lesion: follicular-cell adenoma, dosed 102 weeks) was 15800 mg/kg/day, the TD50 (strain B6C3F1, males, in drinking water, site: liver, lesion: hepatocellular adenoma, dosed 104 weeks) was 2900 mg/kg/day (inactive) and the TD50 (strain B6C3F1, males, in drinking water, site: liver, lesion: hepatocellular carcinoma, dosed 104 weeks) was 2350 mg/kg/day (inactive). For the same compound, the TD50 (strain B6C3F1, males, in drinking water, site: liver, lesion: several types, types named in the paper, dosed 104 weeks) was 1310 mg/kg/day (inactive), the carcinogen call (strain B6C3F1, males, in drinking water, site: thyroid gland, lesion: one or several types, types not named, dosed 104 weeks) was “negative (inactive)” and the TD50 (strain B6C3F1, males, inhaled, site: all sites, lesion: hemangioma + hemangiosarcoma, dosed 102 weeks) was 13200 mg/kg/day. The TD50 (strain B6C3F1, males, inhaled, site: all sites, lesion: hemangiosarcoma, dosed 102 weeks) was 12900 mg/kg/day, the TD50 (strain B6C3F1, males, inhaled, site: any site (literature study), lesion: several types, types named in the paper, dosed 102 weeks) was 1160 mg/kg/day and the TD50 (strain B6C3F1, males, inhaled, site: liver + lung, lesion: hepatocellular adenoma + hepatocellular carcinoma + alveolar/bronchiolar adenoma + alveolar/bronchiolar carcinoma, dosed 102 weeks) was 1090 mg/kg/day. The TD50 (strain B6C3F1, males, inhaled, site: liver, lesion: hepatocellular adenoma + hepatocellular carcinoma + neoplastic nodule, dosed 102 weeks) was 1800 mg/kg/day, the TD50 (strain B6C3F1, males, inhaled, site: liver, lesion: hepatocellular adenoma + hepatocellular carcinoma, dosed 102 weeks) was 1800 mg/kg/day and the TD50 (strain B6C3F1, males, inhaled, site: liver, lesion: hepatocellular adenoma, dosed 102 weeks) was 3480 mg/kg/day. It also gave a TD50 (strain B6C3F1, males, inhaled, site: liver, lesion: hepatocellular carcinoma, dosed 102 weeks) of 2690 mg/kg/day, a TD50 (strain B6C3F1, males, inhaled, site: lung, lesion: alveolar/bronchiolar adenoma + alveolar/bronchiolar carcinoma, dosed 102 weeks) of 920 mg/kg/day and a TD50 (strain B6C3F1, males, inhaled, site: lung, lesion: alveolar/bronchiolar adenoma, dosed 102 weeks) of 1680 mg/kg/day. For the same compound, the TD50 (strain B6C3F1, males, inhaled, site: lung, lesion: alveolar/bronchiolar carcinoma, dosed 102 weeks) was 1710 mg/kg/day, the TD50 (strain Swiss, females, by gavage, site: lung, lesion: adenoma, dosed 64 weeks) was 7050 mg/kg/day and the TD50 (strain Swiss, males, by gavage, site: lung, lesion: adenoma, dosed 64 weeks) was 916 mg/kg/day.
